Measurements taken from patent US9221822B2, “Thiazolopyrimidine modulators as immunosuppressive agents” (Katholieke Universiteit Leuven, K.U.Leuven R&D, priority 2009, dated 2015).

test system: Human peripheral blood mononuclear cells (PBMCs) as Responder cells, RPMI 1788 Stimulator cells; experiment: Mixed Lymphocyte Reaction (MLR) test; type: cell-based; conditions: Homo sapiens, RPMI-1788, lowest concentration giving 50% inhibition of the MLR; 6 days coculture, 3H-thymidine incorporation
Procedure, shortened: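 Human PBMC responders (0.12×10^6) were cocultured 6 days with mitomycin C-treated RPMI 1788 stimulators (0.045×10^6) and compound in RPMI 1640 with 10% FCS, in triplicate. A ^3H-thymidine pulse on day 5, harvested 18 h later, measured proliferation (cpm), converted to % inhibition versus a compound-free MLR.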

Question: With `Nc1nc(N2CCCN(C(=O)COc3ccc(Cl)cc3)CC2)c2nc(CCc3ccc(F)cc3)sc2n1` [Example 138, 5-amino-2-[2-(4-fluorophenyl)ethyl]-7-(4-[2-(4-chlorophenoxy)acetyl]homopiperazin-1-yl)-thiazolo[5,4-d]pyrimidine] as the molecule, how does the IC50 read?
Answer: 2100 nM

Question: With `O=C(O)c1nc(N2CCN(C(=O)COc3ccc(Cl)cc3)CC2)c2cc(-c3ccc(F)cc3)sc2n1` [Example 357, 4-(4-(2-(4-chlorophenoxy)acetyl)piperazin-1-yl)-6-(4-fluorophenyl)thieno[2,3-d]pyrimidine-2-carboxylic acid] as the molecule, how does the IC50 read?
Answer: > 10000 nM

Question: Which IC50 does the source give for `Nc1nc(N2CCN(C(=O)COc3ccc(Cl)cc3)CC2)c2nc(CCc3ccccc3)sc2n1` [Example 118, 5-amino-7-[4-(4-chlorophenoxyacetyl)piperazin-1-yl]-2-(2-phenylethyl)thiazolo[5,4-d]pyrimidine] here?
Answer: 860 nM

Question: `Cc1ccc(-c2nc3c(N4CCN(C(=O)COc5ccc(Cl)cc5)CC4)nc(N)nc3s2)cc1` [Example 295, 1-(4-(5-amino-2-p-tolylthiazolo[5,4-d]pyrimidin-7-yl)piperazin-1-yl)-2-(4-chlorophenoxy)ethanone] was tested. Which IC50 did it give?
Answer: 350 nM

Question: `Nc1nc(N2CCC(C(=O)c3ccccc3)CC2)c2nc(CCc3ccc(F)cc3)sc2n1` [Example 148, 5-amino-2-[2-(4-fluorophenyl)ethyl]-7-(4-benzoylpiperidine-1-yl)-thiazolo[5,4-d]pyrimidine] was tested. Which IC50 did it give?
Answer: 2610 nM

Question: `Nc1nc(N2CCN(C(=O)COc3ccc(Cl)cc3)CC2)c2nc(CCCCc3ccc(F)cc3)sc2n1` [Example 292, 1-(4-(5-amino-2-(4-(4-fluorophenyl)butyl)thiazolo[5,4-d]pyrimidin-7-yl)piperazin-1-yl)-2-(4-chlorophenoxy)ethanone] was tested. Which IC50 did it give?
Answer: 920 nM

Question: Which IC50 does the source give for `Nc1nc(N2CCN(C(=O)COc3ccccc3)CC2)c2nc(CCc3ccc(F)cc3)sc2n1` [Example 134, 5-amino-2-[2-(4-fluorophenyl)ethyl]-7-(4-[2-phenoxyacetyl]piperazin-1-yl)-thiazolo[5,4-d]pyrimidine] here?
Answer: 4920 nM

Question: With `Nc1nc(N2CCN(CCOc3ccccc3)CC2)c2nc(CCc3ccc(F)cc3)sc2n1` [Example 149, 5-amino-2-[2-(4-fluorophenyl)ethyl]-7-(4-(2-phenoxyethyl)piperazin-1-yl)-thiazolo[5,4-d]pyrimidine] as the molecule, how does the IC50 read?
Answer: 5760 nM

Question: With `Nc1nc(N2CCN(C(=O)CCc3ccc(F)cc3)CC2)c2nc(-c3ccc(F)cc3)sc2n1` [Example 236, 1-(4-(5-amino-2-(4-fluorophenyl)thiazolo[5,4-d]pyrimidin-7-yl)piperazin-1-yl)-3-(4-fluorophenyl)propan-1-one] as the molecule, how does the IC50 read?
Answer: 890 nM

Question: With `Nc1nc(N2CCN(C(=O)c3ccc(Cl)cc3)CC2)c2nc(CCc3cccs3)sc2n1` [Example 156, 5-amino-2-(2-thiophen-2-ylethyl)-7-(4-(4-chloro-benzoyl)piperazin-1-yl)thiazolo[5,4-d]pyrimidine] as the molecule, how does the IC50 read?
Answer: > 10000 nM

Question: For `CCOc1nc(N)nc2sc(-c3ccc(F)cc3)nc12` [Example 30, 7-ethoxy-2-(4-fluorophenyl)thiazolo[5,4-d]pyrimidin-5-amine], which IC50 is on record?
Answer: > 10000 nM

Question: With `Nc1nc(N2CCN(C(=O)COc3ccc(Cl)cc3)CC2)c2nc(-c3ccc(Cl)c(Cl)c3)sc2n1` [Example 116, 5-amino-7-[4-(4-chlorophenoxyacetyl)piperazin-1-yl]-2-(3,4-dichlorophenyl)thiazolo[5,4-d]pyrimidine] as the molecule, how does the IC50 read?
Answer: 5290 nM

Question: With `COc1ccc(OCC(=O)N2CCN(c3nc(N)nc4sc(-c5cccnc5)nc34)CC2)cc1` [Example 271, 1-(4-(5-amino-2-(pyridin-3-yl)thiazolo[5,4-d]pyrimidin-7-yl)piperazin-1-yl)-2-(4-methoxyphenoxy)ethanone] as the molecule, how does the IC50 read?
Answer: 12 nM

Question: For `COc1cccc(CCc2nc3c(N4CCN(C(=O)COc5ccc(Cl)cc5)CC4)nc(N)nc3s2)c1` [Example 255, 1-(4-(5-amino-2-(3-methoxyphenethyl)thiazolo[5,4-d]pyrimidin-7-yl)piperazin-1-yl)-2-(4-chlorophenoxy)ethanone], which IC50 is on record?
Answer: 710 nM
